From PubChem BioAssay AID624129 (Sanford-Burnham Center for Chemical Genomics, 2012) come the findings set out here.

Assay in all cases: potency against CXCR6 with APJ panel – cell-based, beta-arrestin, DiscoveRx, uHTS hits, dose response (AID 624129)
Assay [1] addresses Apelin receptor (Homo sapiens) (UniProt P35414). Particulars: CXCR6 beta-arrestin (DiscoveRx) antagonist cell assay, APJ.
In assay [2] the target is Beta-galactosidase (Escherichia coli) (UniProt Q8VNN2). Particulars: CXCR6 beta-arrestin (DiscoveRx) antagonist cell assay, b-galactosidase.
Assay [3] deals with C-C chemokine receptor type 6 (Homo sapiens) (UniProt P51684). As to conditions: CXCR6 beta-arrestin (DiscoveRx) antagonist cell assay.
For assay [4], the target named is C-X-C chemokine receptor type 6 (Homo sapiens) (UniProt O00574). As to conditions: CXCR6 beta-arrestin (DiscoveRx) antagonist cell assay.
Where [5] appears, read: dose range 1, mean IC50 across replicates.
Setting [6] is: CCR6, dose range 1, mean IC50 across replicates.
The mark [7] stands for this setting: CXCR6, dose range 1, mean IC50 across replicates.
Setting [8] is: CXCR6, run 1, dose range 2, at 80 µM (top of the series).

Each structure is given as a SMILES string. Calls of active or inactive are those of the source. No rule for the calls is given here.

Chain of C-X-C chemokine receptor type 6 (Homo sapiens) (O00574 whole entry, looked up): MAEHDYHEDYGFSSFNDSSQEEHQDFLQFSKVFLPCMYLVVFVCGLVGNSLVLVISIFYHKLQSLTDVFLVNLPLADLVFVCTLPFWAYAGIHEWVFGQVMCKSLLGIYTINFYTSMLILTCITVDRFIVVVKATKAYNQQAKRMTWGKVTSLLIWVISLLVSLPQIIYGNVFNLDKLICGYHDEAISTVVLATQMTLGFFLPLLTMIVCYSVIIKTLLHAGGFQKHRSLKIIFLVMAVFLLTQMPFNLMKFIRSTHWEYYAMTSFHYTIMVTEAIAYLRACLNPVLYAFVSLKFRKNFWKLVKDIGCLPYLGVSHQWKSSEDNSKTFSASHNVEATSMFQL
Chain of Beta-galactosidase (Escherichia coli) (Q8VNN2 whole entry, looked up): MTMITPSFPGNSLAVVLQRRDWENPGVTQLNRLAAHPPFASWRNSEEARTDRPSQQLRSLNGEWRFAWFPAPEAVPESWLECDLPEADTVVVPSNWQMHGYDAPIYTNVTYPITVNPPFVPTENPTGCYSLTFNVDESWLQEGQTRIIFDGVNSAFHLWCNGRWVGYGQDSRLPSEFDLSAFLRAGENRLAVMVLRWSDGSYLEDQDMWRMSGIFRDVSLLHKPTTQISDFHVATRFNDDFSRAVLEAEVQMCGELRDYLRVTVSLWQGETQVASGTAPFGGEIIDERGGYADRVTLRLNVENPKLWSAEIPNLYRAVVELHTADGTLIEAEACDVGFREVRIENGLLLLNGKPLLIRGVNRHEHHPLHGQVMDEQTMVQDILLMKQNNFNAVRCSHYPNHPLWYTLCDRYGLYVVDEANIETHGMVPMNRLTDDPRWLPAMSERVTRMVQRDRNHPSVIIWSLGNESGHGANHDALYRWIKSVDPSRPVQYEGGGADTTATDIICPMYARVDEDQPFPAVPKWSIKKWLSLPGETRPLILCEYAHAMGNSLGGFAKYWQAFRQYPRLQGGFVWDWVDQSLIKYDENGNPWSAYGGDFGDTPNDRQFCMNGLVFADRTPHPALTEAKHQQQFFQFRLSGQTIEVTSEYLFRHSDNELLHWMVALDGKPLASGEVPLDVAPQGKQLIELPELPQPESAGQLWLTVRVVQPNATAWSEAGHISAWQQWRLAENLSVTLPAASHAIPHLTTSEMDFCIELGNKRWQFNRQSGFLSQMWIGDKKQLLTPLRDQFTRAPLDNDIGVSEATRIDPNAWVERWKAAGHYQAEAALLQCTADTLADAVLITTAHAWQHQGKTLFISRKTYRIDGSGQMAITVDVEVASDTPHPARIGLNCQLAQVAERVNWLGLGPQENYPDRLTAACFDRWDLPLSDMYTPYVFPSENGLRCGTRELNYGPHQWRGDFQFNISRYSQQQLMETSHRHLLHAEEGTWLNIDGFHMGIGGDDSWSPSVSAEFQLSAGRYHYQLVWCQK

The IC50 is the concentration needed to halve the response being measured. A word on the inhibition: it is the relative decrease from the control value, in per cent. `C=CS(=O)(=O)c1c2cc(OC)ccc2nc2ccc(OC)cc12`: the IC50 in assay [1] (dose range 1) is 17 µM; in assay [1] (setting [5]), 18.7 µM; in assay [1] (run 2, dose range 1), 18.8 µM; in assay [1] (run 3, dose range 1) it was 20.2 µM; in assay [2] (dose range 1), > 80 µM (inactive); in assay [2] (setting [5]), more than 80 µM. Besides, the IC50 in assay [3] (CCR6, dose range 1) is 10.8 µM; in assay [3] (setting [6]) it was 11.7 µM; in assay [3] (CCR6, run 2, dose range 1) it was 12.5 µM; in assay [4] (setting [7]), 12.5 µM; in assay [4] (CXCR6, run 2, dose range 1) it was 10.1 µM. The IC50 entry in assay [4] (CXCR6, dose range 1) was “inactive”. Moreover, in assay [4] (setting [8]), the inhibition is 117%.

Turning to `CN(C)S(=O)(=O)c1cccc(NC(=O)CSc2cccc3cccnc23)c1`, the IC50 in assay [1] (dose range 1) was 47.9 µM; in assay [1] (setting [5]) it was 48.1 µM; in assay [1] (run 2, dose range 1), 47.7 µM; in assay [1] (run 3, dose range 1), 48.7 µM; in assay [2] (dose range 1) it was > 80 µM (inactive); in assay [2] (setting [5]) it was more than 80 µM. The IC50 in assay [3] (CCR6, dose range 1) is 37.3 µM; in assay [3] (setting [6]) it was 34.1 µM; in assay [3] (CCR6, run 2, dose range 1) it was 30.8 µM; in assay [4] (setting [7]) it was 30.8 µM; in assay [4] (CXCR6, run 2, dose range 1) it was 27.2 µM. Besides, the IC50 entry in assay [4] (CXCR6, dose range 1) is “inactive”. The inhibition in assay [4] (setting [8]) amounted to 123%.

`Oc1cccc2ccc(/C=C/c3cccs3)nc12`: the IC50 in assay [1] (dose range 1) was 5.07 µM; in assay [1] (setting [5]), 4.98 µM; in assay [1] (run 2, dose range 1) it was more than 80 µM; in assay [1] (run 3, dose range 1) it was 4.89 µM; in assay [2] (dose range 1), > 80 µM (inactive); in assay [2] (setting [5]), more than 80 µM. For the same molecule, the half-inhibitory concentration (IC50) in assay [3] (CCR6, dose range 1) is 3.95 µM; in assay [3] (setting [6]), 5.65 µM; in assay [3] (CCR6, run 2, dose range 1), 7.36 µM; in assay [4] (setting [7]), 4.43 µM; in assay [4] (CXCR6, run 1, dose range 2) it was 2.77 µM; in assay [4] (CXCR6, run 2, dose range 1) it was 6.87 µM. Moreover, in assay [4] (CXCR6, run 2, dose range 2), the half-maximal inhibitory concentration (IC50) was 3.64 µM.

`Cc1ccc(S(=O)(=O)c2ccc([N+](=O)[O-])o2)cc1`: the concentration for half-maximal inhibition (IC50) in assay [1] (dose range 1) is 9.88 µM; in assay [1] (setting [5]), 10.9 µM; in assay [1] (run 2, dose range 1), more than 80 µM; in assay [1] (run 3, dose range 1) it was 11.9 µM; in assay [2] (dose range 1), > 80 µM (inactive); in assay [2] (setting [5]), more than 80 µM. For the same molecule, the IC50 in assay [3] (setting [6]) is 8.34 µM; in assay [3] (CCR6, run 2, dose range 1), 8.34 µM; in assay [4] (setting [7]), 11.8 µM; in assay [4] (CXCR6, run 2, dose range 1), more than 80 µM. Further, in assay [4] (CXCR6, dose range 1), the IC50 result was “inactive”. In assay [4] (CXCR6, run 1, dose range 2, at 20 µM (top of the series)), the inhibition came out at 77.6%.

In the case of `O=[N+]([O-])c1c(Nc2cccc(O)c2)cc(Cl)c2nonc12`, the IC50 is 18 µM in assay [1] (dose range 1); 19.1 µM in assay [1] (setting [5]); 17 µM in assay [1] (run 2, dose range 1); 22.2 µM in assay [1] (run 3, dose range 1); > 80 µM (inactive) in assay [2] (dose range 1); more than 80 µM in assay [2] (setting [5]). Further, the IC50 in assay [3] (CCR6, dose range 1) is 12.2 µM; in assay [3] (setting [6]) it was 13.3 µM; in assay [3] (CCR6, run 2, dose range 1), 14.3 µM; in assay [4] (setting [7]), 13.8 µM; in assay [4] (CXCR6, run 2, dose range 1), 11.3 µM. In addition, the IC50 entry in assay [4] (CXCR6, dose range 1) was “inactive”. Moreover, in assay [4] (setting [8]), the inhibition stood at 113%.

Take `CCOC(=O)c1c(SCCN2CCCCC2)n(-c2ccccc2)c(=S)n(-c2ccccc2)c1=O`: the IC50 in assay [1] (dose range 1) was 5.99 µM; in assay [1] (setting [5]) it was 6.77 µM; in assay [1] (run 2, dose range 1) it was 7.04 µM; in assay [1] (run 3, dose range 1) it was 7.28 µM; in assay [2] (dose range 1), > 80 µM (inactive); in assay [2] (setting [5]), more than 80 µM. In addition, the half-maximal inhibitory concentration (IC50) was 4.56 µM in assay [3] (CCR6, dose range 1); 5.9 µM in assay [3] (setting [6]); 7.23 µM in assay [3] (CCR6, run 2, dose range 1); 11.1 µM in assay [4] (CXCR6, dose range 1); 8.58 µM in assay [4] (setting [7]); 6.03 µM in assay [4] (CXCR6, run 2, dose range 1). For the same molecule, the inhibition in assay [4] (setting [8]) was determined as 130%.

Consider `CC(Oc1ccc(F)cc1)C(=O)Nc1nc(-c2ccccn2)cs1` (configuration not stated), for which the concentration for half-maximal inhibition (IC50) in assay [1] (dose range 1) is 9.28 µM; in assay [1] (setting [5]), 9.34 µM; in assay [1] (run 2, dose range 1), 8.14 µM; in assay [1] (run 3, dose range 1), 10.6 µM; in assay [2] (dose range 1), > 80 µM (inactive); in assay [2] (setting [5]) it was more than 80 µM. The IC50 in assay [3] (CCR6, dose range 1) is 7.82 µM; in assay [3] (setting [6]), 8.7 µM; in assay [3] (CCR6, run 2, dose range 1), 9.57 µM; in assay [4] (CXCR6, dose range 1), 8.77 µM; in assay [4] (setting [7]), 7.74 µM; in assay [4] (CXCR6, run 1, dose range 2) it was 5.99 µM. For the same molecule, the IC50 amounted to 8.41 µM in assay [4] (CXCR6, run 2, dose range 1) and 7.81 µM in assay [4] (CXCR6, run 2, dose range 2).

Consider `O=[N+]([O-])c1cc([N+](=O)[O-])c2cc3ccccc3nc2c1`, for which the concentration for half-maximal inhibition (IC50) is more than 80 µM in assay [1] (setting [5]); more than 80 µM in assay [1] (run 2, dose range 1); more than 80 µM in assay [1] (run 3, dose range 1); > 80 µM (inactive) in assay [2] (dose range 1); more than 80 µM in assay [2] (setting [5]); more than 80 µM in assay [3] (setting [6]). Also, the IC50 in assay [3] (CCR6, run 2, dose range 1) was more than 80 µM; in assay [4] (CXCR6, dose range 1) it was > 80 µM (inactive); in assay [4] (setting [7]) it was more than 80 µM; in assay [4] (CXCR6, run 2, dose range 1), more than 80 µM. In assay [4] (setting [8]), the inhibition is -64.9%.
